Test results as given in PubChem BioAssay AID248 (DTP/NCI, 2004).
Values joined by “and” are separate entries in the source; they are usually repeats but may differ in a detail not shown here. Equal values may be shown once. Toxic doses and inconclusive results are not listed. Cut-off read from the data, not from the text of the source: active = T/C of 150% or more; inactive = T/C below 125%. Peptide text beside a SMILES is read from it. * marks the point of attachment. For = O=C*

System: L1210 leukemia ip in BDF1 mice, survival T/C
Test: NCI In Vivo Anticancer Drug Screen. Data for tumor model L1210 Leukemia (intraperitoneal) in B6D2F1 (BDF1) mice
Details: endpoint: mean survival time, higher = longer survival
In short: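 Mice bearing the transplanted tumor received compound or vehicle. Survival of the treated group was divided by that of the vehicle-treated control group to give the ratio.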

[1] = dose: 100.0 mg/kg/injection, schedule: Q04DX003 (ip), vehicle: saline with Tween-80
[2] = dose: 200.0 mg/kg/injection, schedule: Q04DX003 (ip), vehicle: saline with Tween-80
[3] = dose: 400.0 mg/kg/injection, schedule: Q04DX003 (ip), vehicle: saline with Tween-80
[4] = dose: 400.0 mg/kg/injection, schedule: Q04DX002 (ip), vehicle: saline with Tween-80
[5] = dose: 100.0 mg/kg/injection, schedule: Q01DX001 (ip), vehicle: carboxymethylcellulose (CMC)
[6] = dose: 100.0 mg/kg/injection, schedule: Q01DX009 (ip), vehicle: Klucel (hydroxypropylcellulose) (HPC)
[7] = dose: 200.0 mg/kg/injection, schedule: Q01DX009 (ip), vehicle: Klucel (hydroxypropylcellulose) (HPC)
[8] = dose: 100.0 mg/kg/injection, schedule: Q01DX009 (ip), vehicle: saline with Tween-80
[9] = dose: 200.0 mg/kg/injection, schedule: Q01DX009 (ip), vehicle: saline with Tween-80
[10] = dose: 400.0 mg/kg/injection, schedule: Q01DX009 (ip), vehicle: saline with Tween-80
[11] = dose: 50.0 mg/kg/injection, schedule: Q04DX003 (ip), vehicle: saline
[12] = dose: 100.0 mg/kg/injection, schedule: Q04DX003 (ip), vehicle: saline
[13] = dose: 100.0 mg/kg/injection, schedule: Q01DX001 (ip), vehicle: saline
[14] = dose: 200.0 mg/kg/injection, schedule: Q01DX001 (ip), vehicle: saline
[15] = dose: 400.0 mg/kg/injection, schedule: Q01DX001 (ip), vehicle: saline
[16] = dose: 100.0 mg/kg/injection, schedule: Q01DX001 (ip), vehicle: other
[17] = dose: 200.0 mg/kg/injection, schedule: Q01DX001 (ip), vehicle: other

Measured: T/C

Cc1cccc(C(=O)CC(O)(C(F)(F)F)C(F)(F)F)c1
inactive: dose: 50.0 mg/kg/injection, schedule: Q04DX003 (ip), vehicle: saline with Tween-80 98 % of control | [1] 100 % of control | [2] 91 % of control | [3] 102 % of control

CP(C)(=S)P(C)(C)=S
inactive: dose: 25.0 mg/kg/injection, schedule: Q04DX002 (ip), vehicle: Klucel (hydroxypropylcellulose) (HPC) 98 % of control | dose: 50.0 mg/kg/injection, schedule: Q04DX002 (ip), vehicle: Klucel (hydroxypropylcellulose) (HPC) 94 % of control | dose: 100.0 mg/kg/injection, schedule: Q04DX002 (ip), vehicle: Klucel (hydroxypropylcellulose) (HPC) 95 % of control and 112 % of control

O=C(Nc1ccccc1)N1CCN=C1C1CCCc2ccccc21 (configuration not stated)
inactive: dose: 100.0 mg/kg/injection, schedule: Q04DX002 (ip), vehicle: saline with Tween-80 89 % of control | dose: 200.0 mg/kg/injection, schedule: Q04DX002 (ip), vehicle: saline with Tween-80 89 % of control | [4] 86 % of control

O=C1C=CC(=O)N1Cc1ccc[n+](CCC[n+]2cccc(CN3C(=O)C=CC3=O)c2)c1
inactive: [5] 98 % of control | dose: 200.0 mg/kg/injection, schedule: Q01DX001 (ip), vehicle: carboxymethylcellulose (CMC) 91 % of control | dose: 400.0 mg/kg/injection, schedule: Q01DX001 (ip), vehicle: carboxymethylcellulose (CMC) 96 % of control

CNC(=O)Nc1nnc(C)s1
inactive: [6] 98 % of control | [7] 106 % of control | dose: 400.0 mg/kg/injection, schedule: Q01DX009 (ip), vehicle: Klucel (hydroxypropylcellulose) (HPC) 114 % of control

COC(=O)C(CC(C)C)NC(=O)C(Cc1ccc(O)cc1)NC=O (stereo not drawn) (For-Tyr-Leu-OMe; configuration not given here)
inactive: [8] 94 % of control | [1] 110 % of control | [9] 95 % of control | [2] 102 % of control | [10] 92 % of control | [3] 96 % of control

CC(=O)NS(=O)(=O)c1ccc(N=Cc2cc(Cl)cc(Cl)c2O)cc1
inactive: dose: 100.0 mg/kg/injection, schedule: Q01DX009 (ip), vehicle: saline 111 % of control | dose: 200.0 mg/kg/injection, schedule: Q01DX009 (ip), vehicle: saline 102 % of control | dose: 400.0 mg/kg/injection, schedule: Q01DX009 (ip), vehicle: saline 102 % of control

Cc1ccc(C#N)cc1
inactive: [8] 98 % of control | [1] 94 % of control | [9] 93 % of control | [2] 92 % of control | [10] 98 % of control | [3] 96 % of control

Nc1nc2nc(CC(=O)C(=O)O)c(=O)[nH]c2c(=O)[nH]1
inactive: dose: 3.12 mg/kg/injection, schedule: Q01DX009 (ip), vehicle: saline with Tween-80 97 % of control | dose: 6.25 mg/kg/injection, schedule: Q01DX009 (ip), vehicle: saline with Tween-80 101 % of control | dose: 12.5 mg/kg/injection, schedule: Q01DX009 (ip), vehicle: saline with Tween-80 103 % of control | dose: 12.5 mg/kg/injection, schedule: Q04DX003 (ip), vehicle: saline 105 % of control | dose: 25.0 mg/kg/injection, schedule: Q04DX003 (ip), vehicle: saline 111 % of control | dose: 50.0 mg/kg/injection, schedule: Q01DX009 (ip), vehicle: saline 97 % of control | [11] 104 % of control | [12] 106 % of control

CCOc1ccc2c(ccc(/C=C\c3cc(C)c4cccnc4c3O)[n+]2C)c1
inactive: dose: 25.0 mg/kg/injection, schedule: Q01DX001 (ip), vehicle: carboxymethylcellulose (CMC) 104 % of control | dose: 50.0 mg/kg/injection, schedule: Q01DX001 (ip), vehicle: carboxymethylcellulose (CMC) 109 % of control | [5] 93 % of control

Fc1c(F)c(F)c(Oc2nc(Oc3c(F)c(F)c(F)c(F)c3F)nc(-c3ccccc3)n2)c(F)c1F
inactive: dose: 25.6 mg/kg/injection, schedule: Q04DX002 (ip), vehicle: saline with Tween-80 91 % of control | dose: 64.0 mg/kg/injection, schedule: Q04DX002 (ip), vehicle: saline with Tween-80 102 % of control | [1] 92 % of control | dose: 160.0 mg/kg/injection, schedule: Q04DX002 (ip), vehicle: saline with Tween-80 94 % of control | [2] 92 % of control | [4] 105 % of control | [3] 87 % of control

Cc1ccc(C(/C=C/c2ccccc2)=N\N=C(N)N)cc1
inactive: dose: 15.0 mg/kg/injection, schedule: Q01DX Z (ip), vehicle: methylcellulose (MC) 87 % of control | dose: 30.0 mg/kg/injection, schedule: Q01DX Z (ip), vehicle: methylcellulose (MC) 87 % of control | dose: 30.0 mg/kg/injection, schedule: Q01DX Z (oral), vehicle: methylcellulose (MC) 93 % of control | dose: 60.0 mg/kg/injection, schedule: Q01DX Z (ip), vehicle: methylcellulose (MC) 97 % of control | dose: 60.0 mg/kg/injection, schedule: Q01DX Z (oral), vehicle: methylcellulose (MC) 87 % of control | dose: 120.0 mg/kg/injection, schedule: Q01DX Z (oral), vehicle: methylcellulose (MC) 95 % of control | dose: 240.0 mg/kg/injection, schedule: Q01DX Z (oral), vehicle: methylcellulose (MC) 95 % of control | dose: 480.0 mg/kg/injection, schedule: Q01DX Z (oral), vehicle: methylcellulose (MC) 100 % of control

NC1CCCCC1Cl (configuration not stated)
inactive: [13] 98 % of control | [14] 96 % of control | [15] 98 % of control

Cc1ccc(OC/C=C/CS(=O)(=O)c2ccc(C)cc2)cc1
inactive: dose: 50.0 mg/kg/injection, schedule: Q01DX009 (ip), vehicle: Klucel (hydroxypropylcellulose) (HPC) 100 % of control | dose: 75.0 mg/kg/injection, schedule: Q01DX001 (ip), vehicle: Klucel (hydroxypropylcellulose) (HPC) 93 % of control | [6] 98 % of control | dose: 150.0 mg/kg/injection, schedule: Q01DX001 (ip), vehicle: Klucel (hydroxypropylcellulose) (HPC) 98 % of control | [7] 98 % of control | dose: 300.0 mg/kg/injection, schedule: Q01DX001 (ip), vehicle: Klucel (hydroxypropylcellulose) (HPC) 95 % of control

CN(C)c1ccc([N+](=O)[O-])cc1[N+](=O)[O-]
inactive: [16] 111 % of control | [17] 101 % of control

NCC(O)c1ccc(O)cc1 (configuration not stated)
inactive: [11] 101 % of control | [13] 93 % of control | [12] 97 % of control | [14] 93 % of control | dose: 200.0 mg/kg/injection, schedule: Q04DX003 (ip), vehicle: saline 98 % of control | [15] 101 % of control

O=c1cc(CO)oc(C(Nc2ccccc2)c2ccccc2)c1O (configuration not stated)
inactive: [13] 91 % of control | [14] 97 % of control | [15] 95 % of control

CCCOP(=S)(NCCCOC)OCCC
inactive: dose: 50.0 mg/kg/injection, schedule: Q01DX009 (ip), vehicle: other 94 % of control | dose: 50.0 mg/kg/injection, schedule: Q04DX003 (ip), vehicle: other 95 % of control | [16] 96 % of control | dose: 100.0 mg/kg/injection, schedule: Q01DX009 (ip), vehicle: other 100 % of control | dose: 100.0 mg/kg/injection, schedule: Q04DX003 (ip), vehicle: other 95 % of control | [17] 102 % of control | dose: 200.0 mg/kg/injection, schedule: Q01DX009 (ip), vehicle: other 94 % of control | dose: 200.0 mg/kg/injection, schedule: Q04DX003 (ip), vehicle: other 97 % of control

O=[N+]([O-])c1ccc(NCCO)c([N+](=O)[O-])c1
inactive: [8] 98 % of control | [1] 88 % of control | [9] 106 % of control | [2] 97 % of control | [3] 88 % of control

CNC(C)c1ccc(C)cc1 (configuration not stated)
inactive: dose: 6.25 mg/kg/injection, schedule: Q01DX009 (ip), vehicle: saline 123 % of control | dose: 12.5 mg/kg/injection, schedule: Q01DX009 (ip), vehicle: saline 95 % of control | dose: 25.0 mg/kg/injection, schedule: Q01DX009 (ip), vehicle: saline 100 % of control

[F][Sn]([c]1ccc(Cl)cc1)([c]1ccc(Cl)cc1)[c]1ccc(Cl)cc1
inactive: dose: 0.18 mg/kg/injection, schedule: Q04DX003 (ip), vehicle: other 97 % of control | dose: 0.37 mg/kg/injection, schedule: Q04DX003 (ip), vehicle: other 101 % of control | dose: 0.75 mg/kg/injection, schedule: Q04DX003 (ip), vehicle: other 93 % of control | dose: 1.5 mg/kg/injection, schedule: Q04DX003 (ip), vehicle: other 100 % of control
